According to patent US11478457B2, “Castration-resistant prostate cancer” (priority 2015, dated 2022):
Residue numbers refer to the chain shown, from its start.

Experiments:
WT UGDH [1] = biological target: T1, WT UGDH (Homo sapiens, UniProt O60701); assay: UGDH kinetic characterization, WT; type: biochemical; conditions: substrate/cofactor varied
T1 sequence (O60701 1-494): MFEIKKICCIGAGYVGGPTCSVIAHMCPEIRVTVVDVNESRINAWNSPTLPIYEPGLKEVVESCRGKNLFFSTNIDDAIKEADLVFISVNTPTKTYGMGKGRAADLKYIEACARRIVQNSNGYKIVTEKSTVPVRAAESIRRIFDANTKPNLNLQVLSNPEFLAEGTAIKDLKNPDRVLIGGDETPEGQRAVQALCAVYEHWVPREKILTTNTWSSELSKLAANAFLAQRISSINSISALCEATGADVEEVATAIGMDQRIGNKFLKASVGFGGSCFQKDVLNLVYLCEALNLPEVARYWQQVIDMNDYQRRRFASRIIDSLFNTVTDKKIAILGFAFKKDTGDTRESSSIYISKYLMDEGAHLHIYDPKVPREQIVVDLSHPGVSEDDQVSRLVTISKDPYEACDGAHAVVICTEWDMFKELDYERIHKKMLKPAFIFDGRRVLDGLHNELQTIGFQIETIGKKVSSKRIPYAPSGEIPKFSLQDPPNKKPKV
Text: (§1) T325A and T325D are engineered inducible hexameric and obligate dimeric UGDH species, respectively.

T325A-UGDH = biological target: T2, T325A-UGDH (Homo sapiens, UniProt O60701, T325A); assay: UGDH kinetic characterization, T325A; type: biochemical; conditions: substrate/cofactor varied
T2 sequence (O60701 1-494 T325A): T1 sequence (O60701 1-494) with T325A
Text: as §1

T325D-UGDH = biological target: T3, T325D-UGDH (Homo sapiens, UniProt O60701, T325D); assay: UGDH kinetic characterization, T325D; type: biochemical; conditions: substrate/cofactor varied
T3 sequence (O60701 1-494 T325D): T1 sequence (O60701 1-494) with T325D
Text: as §1

WT UGDH [2] = biological target: T1, WT UGDH; assay: UGDH inhibition assay (IC50, Ki), WT enzyme; type: biochemical; conditions: for Mode of inhibition: UGDH; for IC50: 50 μM UDP-glc and 1 mM NAD+
Method: (§2) Ki values were determined by varying [UDP-glc] and holding NAD+ at saturating concentrations.
(§3) IC50 experiments were performed as described above (see e.g., Example 2).

[3] = biological target: T4, T325A-UGDH (inducible hexamer) (Homo sapiens, UniProt O60701, T325A); assay: UGDH inhibition assay (IC50, Ki), T325A mutant; type: biochemical
T4 sequence (O60701 1-494 T325A): T1 sequence (O60701 1-494) with T325A
Method: as §2, §3

[4] = biological target: T5, T325D-UGDH (obligate dimer) (Homo sapiens, UniProt O60701, T325D); assay: UGDH inhibition assay (IC50, Ki), T325D mutant; type: biochemical; conditions: required 4 μM T325D instead of 1 μM
T5 sequence (O60701 1-494 T325D): T1 sequence (O60701 1-494) with T325D
Method: as §2, §3

[5] = biological target: T6, T325A (inducible hexamer) UGDH (Homo sapiens, UniProt O60701, T325A); assay: Thermal stability of UGDH, T325A; type: binding
T6 sequence (O60701 1-494 T325A): T1 sequence (O60701 1-494) with T325A
Method: (§4) FIG. 8A-8D show UDP-xylose effects on the thermal stability of WT, T325A (inducible hexamer), and T325D (obligate dimer) UGDH. […] Statistical analyses were performed using a two-way ANOVA with Bonferroni post tests on PRISM.

[6] = biological target: T7, T325D (obligate dimer) UGDH (Homo sapiens, UniProt O60701, T325D); assay: Thermal stability of UGDH, T325D; type: binding
T7 sequence (O60701 1-494 T325D): T1 sequence (O60701 1-494) with T325D
Method: as §4

WT UGDH [7] = biological target: T1, WT UGDH; assay: Limited trypsin proteolysis of UGDH, WT; conditions: WT ternary complexes; 500 μM
Method: (§5) UDP-xylose [20 μM] protected T325A apo from trypsin digestion (red star) and only slightly affected the other forms. […] Each assay contained 10 μg of enzyme, 10 ng Trypsin, and combinations of substrate, cofactor, and UDP-xylose, which was incubated 2.5 h, followed by SDS-PAGE.
(§6) The same procedures from above (see e.g., Example 7) were followed.

UGDH T325A = biological target: T8, UGDH T325A (Homo sapiens, UniProt O60701, T325A); assay: Limited trypsin proteolysis of UGDH, T325A
T8 sequence (O60701 1-494 T325A): T1 sequence (O60701 1-494) with T325A
Method: as §5, §6

WT UGDH [8] = biological target: T1, WT UGDH; assay: Thermal stability of UGDH, WT; type: binding
Method: as §4

UGDH T325D = biological target: T9, UGDH T325D (Homo sapiens, UniProt O60701, T325D); assay: Limited trypsin proteolysis of UGDH, T325D; conditions: 20 μM, 2.5 h
T9 sequence (O60701 1-494 T325D): T1 sequence (O60701 1-494) with T325D
Method: as §5, §6

[9] = biological target: T10, UDP-glucose dehydrogenase (Homo sapiens, UniProt O60701); assay: High throughput screening for inhibitors of UDP-glucose dehydrogenase (NADH fluorescence); type: biochemical; conditions: compound plates 20 μL/well of 25 μg/mL compound in 2.5% DMSO; relative to DMSO negative and UDP-xylose positive controls; higher POC = more inhibitory; read-out: POC (Percent of Controls)
T10 sequence (O60701 1-494): T1 sequence (O60701 1-494)

Q: With `NC(=O)c1ccc[n+]([C@@H]2O[C@H](COP(=O)([O-])OP(=O)(O)OC[C@H]3O[C@@H](n4cnc5c(N)ncnc54)[C@H](O)[C@@H]3O)[C@@H](O)[C@H]2O)c1` [NAD+] as the compound, how does the Km (WT UGDH [1]) read?
A: The Km was 1030 ± 215 µM.

Q: And the VMAX (WT UGDH [1])?
A: The VMAX was 206.1 ± 13.0 nmol/min/mg.

Q: What about the Km (T325A-UGDH) of the same compound?
A: The Km was 1680 ± 455 µM.

Q: What about the VMAX (T325A-UGDH) of the same compound?
A: The VMAX was 103 ± 8.5 nmol/min/mg.

Q: What about the Km (T325D-UGDH) of the same compound?
A: The Km was 1200 ± 290 µM.

Q: What about the VMAX (T325D-UGDH) of the same compound?
A: Its VMAX is 38.0 ± 2.5 nmol/min/mg.

Q: With `O=C(O)CCc1ccc(-c2cccs2)o1` [Compound 31, 3-[5-(2-thienyl)-2-furyl]propanoic acid] as the compound, how does the Mode of inhibition (WT UGDH [2]) read?
A: Its Mode of inhibition is “allosteric inhibitor”.

Q: And the IC50 (WT UGDH [2]; WT-UGDH)?
A: Its IC50 is 146.8 ± 1.05 µM.

Q: And the IC50 [3]?
A: The IC50 was 86.98 ± 0.03 µM.

Q: What about the IC50 [4] of the same compound?
A: The IC50 was 799.4 ± 0.05 µM.

Q: And the “Effect on thermal stability” value ([5]; T325A, all binary complexes except UDP-glucose)?
A: Its value is “decreasing thermal stability”.

Q: And the “Effect on thermal stability” value ([6]; T325D, all binary complexes except UDP-glucose)?
A: The value was “decreasing thermal stability”.

Q: What about the “Effect on trypsin digestion” value (WT UGDH [7]) of the same compound?
A: The value was “significantly affects”.

Q: And the “Effect on trypsin digestion” value (UGDH T325A; T325A ternary complexes, 500 μM)?
A: The value was “significantly affects”.

Q: With `O=c1ccn([C@@H]2O[C@H](COP(=O)(O)OP(=O)(O)O[C@H]3OC[C@@H](O)[C@H](O)[C@H]3O)[C@@H](O)[C@H]2O)c(=O)[nH]1` [UDP-xylose, reference compound] as the compound, how does the Mode of inhibition (WT UGDH [2]) read?
A: The Mode of inhibition was “competitive inhibitor”.

Q: What about the IC50 (WT UGDH [2]; WT-UGDH) of the same compound?
A: Its IC50 is 0.58 ± 0.09 µM.

Q: What about the Ki (WT UGDH [2]; WT-UGDH, varying [UDP-glc], NAD+ at saturating concentrations) of the same compound?
A: The Ki was 2.67 ± 0.54 µM.

Q: What about the “Effect on thermal stability” value (WT UGDH [8]; NAD+ complex with WT) of the same compound?
A: The value was “significantly increase thermal stability”.

Q: And the “Effect on thermal stability” value (WT UGDH [8]; apo WT)?
A: The value was “increased the thermal stability”.

Q: And the “Effect on thermal stability” value ([5]; NAD+ complex with T325A)?
A: Its value is “significantly increase thermal stability”.

Q: What about the “Effect on thermal stability” value ([5]; apo T325A) of the same compound?
A: The value was “increased the thermal stability”.

Q: And the “Effect on thermal stability” value ([6]; NAD+ complex with T325D)?
A: Its value is “significantly increase thermal stability”.

Q: And the “Effect on trypsin digestion” value (UGDH T325A; T325A apo, 20 μM, 2.5 h)?
A: The value was “protected”.

Q: And the “Effect on trypsin digestion” value (UGDH T325D; T325D apo and UDP-glc forms)?
A: Its value is “did not affect”.

Q: What about the “Effect on trypsin digestion” value (UGDH T325D; T325D complexes with NAD+, NADH, and UDP-glcA) of the same compound?
A: Its value is “significantly protected”.

Q: How did the IC50 (WT UGDH [2]; WT-UGDH) turn out when `CCC(C)(O)c1nnn(-c2nonc2N)c1C(C)(O)CC` (stereo not drawn) [Compound 1, 2,2′-[1-(4-amino-1,2,5-oxadiazol-3-yl)-1H-1,2,3-triazole-4,5-diyl]di(2-butanol)] was run?
A: Its IC50 is 261 ± 6.2 µM.

Q: What about the Ki ([3]; varying [UDP-glc], NAD+ at saturating concentrations) of the same compound?
A: Its Ki is 421 ± 118 µM.

Q: And the “Effect on thermal stability” value (WT UGDH [8]; UDP-glcA complex with WT)?
A: Its value is “decrease thermal stability”.

Q: What about the “Effect on thermal stability” value ([5]; UDP-glcA complex with T325A) of the same compound?
A: Its value is “decrease thermal stability”.

Q: And the “Effect on thermal stability” value ([6]; UDP-glcA complex with T325D)?
A: Its value is “decrease thermal stability”.

Q: And the “Effect on trypsin digestion” value (UGDH T325A; T325A with UDP-glcA and UDP-glcA with NADH, 750 μM)?
A: The value was “significantly affects”.

Q: For `COc1cc(/C=C2\C(C)=C([N+](=O)[O-])CS2(=O)=O)ccc1O`, which inhibition at 25 µg/mL (stock) [9] is on record?
A: The inhibition at 25 µg/mL (stock) was 65%.

Q: `COCCN1C(=O)C(O)=C(C(=O)c2ccc(OC)c(C)c2)C1c1ccncc1` (stereo not drawn) was tested. Which inhibition at 25 µg/mL (stock) [9] did it give?
A: Its inhibition at 25 µg/mL (stock) is 51%.

Q: With `C[n+]1sc(Nc2ccccc2)nc1-c1ccccc1` as the compound, how does the inhibition at 25 µg/mL (stock) [9] read?
A: Its inhibition at 25 µg/mL (stock) is 58%.

Q: For `Cc1cc(=O)n2ccc(N)c(O)c2n1`, which inhibition at 25 µg/mL (stock) [9] is on record?
A: Its inhibition at 25 µg/mL (stock) is 50%.

Q: For `Cc1nnc(SC2CC(=O)N(c3ccc(Br)cc3)C2=O)s1` (stereo not drawn), which inhibition at 25 µg/mL (stock) [9] is on record?
A: The inhibition at 25 µg/mL (stock) was 47%.
